Publication PMC8707451, “Separation and Identification of Antioxidants and Aldose Reductase Inhibitors in Lepechinia meyenii (Walp.) Epling” (Plants, 2021)
Marks after values point to notes of the source that are not given here.

How the values were obtained:
[1] = DPPH radical scavenging assay (antioxidant); settings: for IC50: pure compounds
Experimental: The antioxidant potential of the samples was evaluated using DPPH radical scavenging assay, as reported previously. In brief, 180 μL of freshly prepared DPPH solution (0.32 mM in MeOH) was mixed with 20 μL of the sample (in 50% MeOH, extracts and fractions, 50–400 µg/mL; components, 125–500 µM) in a 96-well plate and incubated for 20 min in the dark at 25 °C. Then, the absorbance (570 nm) of the reaction solution was measured using an EL800 microplate reader (Bio-Tek Instruments, Winooski, VT, USA). Quercetin was used as a positive control.

[2] = target: rat lens AR (aldose reductase) (Rattus norvegicus, UniProt P07943); experiment: AR inhibition assay with rat lens AR homogenate;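 also: supernatant of Sprague–Dawley rat lens extract as enzyme, DL-glyceraldehyde substrate, absorbance at 340 nm followed over 6 min, DMSO up to 0.5% v/v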
Experimental: The eyes of 10-week Sprague–Dawley rats (250–280 g) were removed and kept at −70 °C before use. Then, the lenses were removed from the eyes using surgical scissors and tweezers, ground in a mortar (precooled at −70 °C) and extracted using 0.1 M phosphate-buffered saline (PBS) of pH 6.2 (approximately 0.5 mL of buffer per one rat lens). The extract solution was further centrifuged at 10,000× g for 30 min at 4 °C (Mega 17R, Hanil Science Industry, Gimpo, Korea), and the supernatant was collected and used as rat lens AR homogenate.
For AR inhibition assay, 100 µL of 0.1 M PBS (pH 7.0), 20 µL of AR homogenate, 20 µL of NADPH (cofactor, 2.4 mM in 0.1 M PBS of pH 8.0), 20 µL of the sample (in a mixture of water and DMSO; extracts and fractions 62.5–100 µg/mL, compounds 3.9–500 µM), and 20 µL of ammonium sulfate solution (4 M in 0.1 M PBS of pH 7.0) were pipetted into a 96-well plate. Then, 20 µL of the substrate (in 0.1 M PBS of pH 7.0; 25 mM of DL-glyceraldehyde dimmer) was added, and the absorbance (340 nm) was measured for 6 min using an Epoch microplate spectrophotometer (BioTek Instruments, Winooski, VT, USA). […] DMSO was used to prepare samples, but its ratio was kept within 0.5% (v/v) of the reaction system.
The half-maximal inhibitory concentrations (IC50 values) of samples against DPPH radicals and AR were calculated via linear regression and logarithmic analysis, respectively.

[3] = read-out: AR Inhibitory Activity Inhibition (%)

SMILES	IC50 ([1]; linear regression) [µM]	IC50 [2] [µM]	inhibition at 3.125 µM [2, 3] [%]	inhibition at 0.39 µM [2, 3] [%]	inhibition at 0.78 µM [2, 3] [%]	inhibition at 1.56 µM [2, 3] [%]	DPPH Scavenging Activity Inhibition (%) ([1]; compound concentration 12.5 µM)	DPPH Scavenging Activity Inhibition (%) ([1]; compound concentration 25 µM)	DPPH Scavenging Activity Inhibition (%) ([1]; compound concentration 50 µM)	inhibition at 12.5 µM [2, 3] [%]	inhibition at 25 µM [2, 3] [%]	inhibition at 50 µM [2, 3] [%]	inhibition at 6.25 µM [2, 3] [%]	DPPH Scavenging Activity IC50 ([1]; extracts, fractions and quercetin, linear regression)	DPPH Scavenging Activity Inhibition (%) ([1]; sample concentration 5 µg/mL)	DPPH Scavenging Activity Inhibition (%) ([1]; sample concentration 10 µg/mL)	DPPH Scavenging Activity Inhibition (%) ([1]; sample concentration 20 µg/mL)	inhibition at 2.5 µg/mL [2, 3] [%]	inhibition at 5 µg/mL [2, 3] [%]	inhibition at 10 µg/mL [2, 3] [%]
COc1ccc([C@@H]2CC(=O)c3c(O)cc(O[C@@H]4O[C@H](CO[C@@H]5O[C@@H](C)[C@H](O)[C@@H](O)[C@H]5O)[C@@H](O)[C@H](O)[C@H]4O)cc3O2)cc1O [Hesperidin (2), Hesperidin]							1.20 ± 1.18	2.57 ± 0.77	3.37 ± 1.32	1.78 ± 0.33	10 ± 1.22	11.6 ± 0.41								
O=C(/C=C/c1ccc(O)c(O)c1)O[C@H](Cc1ccc(O)c(O)c1)C(=O)O [Rosmarinic acid (3), Rosmarinic acid]	36.91 ± 0.35	4.08 ± 0.11	42.6 ± 1.63				19.05 ± 1.33	34.35 ± 0.69	67.04 ± 0.64	76 ± 1.03			62.9 ± 2.1							
COc1ccc(-c2cc(=O)c3c(O)cc(O)cc3o2)cc1O [Diosmetin (6), Diosmetin]							0.14 ± 0.34	0.46 ± 0.35	3.18 ± 0.42	10.5 ± 3.79	22 ± 1.25	34 ± 1.03								
O=C(O)/C=C/c1ccc(O)c(O)c1 [Caffeic acid (1), Caffeic acid]							8.60 ± 0.87	20.21 ± 0.58	43.33 ± 0.69	12.3 ± 2.09	17.8 ± 0.41	20.3 ± 0.62								
COc1ccc(-c2cc(=O)c3c(O)cc(O[C@@H]4O[C@H](CO[C@@H]5O[C@@H](C)[C@H](O)[C@@H](O)[C@H]5O)[C@@H](O)[C@H](O)[C@H]4O)cc3o2)cc1O [Diosmin (4), Diosmin]							0.31 ± 0.69	0.61 ± 1.08	2.61 ± 0.67	8.91 ± 0.62	11.2 ± 0.82	12.3 ± 0.62								
O=c1c(O)c(-c2ccc(O)c(O)c2)oc2cc(O)cc(O)c12 [Quercetin, quercetin, reference compound]	33.19 ± 0.31						22.31 ± 0.92	40.39 ± 0.82	72.32 ± 0.42	45 ± 1.65	65.1 ± 1.47		31.5 ± 1.7	10.46 ± 0.34 ^e µg/mL	28.65 ± 0.38	54.43 ± 2.07	84.78 ± 2.36	38.7 ± 0.91	55.3 ± 1.58	64 ± 0.88

Second part, led by results:

IC50 ([1]; linear regression) [µM]	IC50 [2] [µM]	inhibition at 3.125 µM [2, 3] [%]	inhibition at 0.39 µM [2, 3] [%]	inhibition at 0.78 µM [2, 3] [%]	inhibition at 1.56 µM [2, 3] [%]	SMILES	DPPH Scavenging Activity Inhibition (%) ([1]; compound concentration 12.5 µM)	DPPH Scavenging Activity Inhibition (%) ([1]; compound concentration 25 µM)	DPPH Scavenging Activity Inhibition (%) ([1]; compound concentration 50 µM)	inhibition at 12.5 µM [2, 3] [%]	inhibition at 25 µM [2, 3] [%]	inhibition at 50 µM [2, 3] [%]	inhibition at 6.25 µM [2, 3] [%]	DPPH Scavenging Activity IC50 ([1]; extracts, fractions and quercetin, linear regression)	DPPH Scavenging Activity Inhibition (%) ([1]; sample concentration 5 µg/mL)	DPPH Scavenging Activity Inhibition (%) ([1]; sample concentration 10 µg/mL)	DPPH Scavenging Activity Inhibition (%) ([1]; sample concentration 20 µg/mL)	inhibition at 2.5 µg/mL [2, 3] [%]	inhibition at 5 µg/mL [2, 3] [%]	inhibition at 10 µg/mL [2, 3] [%]
33.01 ± 0.27	1.17 ± 0.08		22.1 ± 0.85	40.9 ± 3.47	56.7 ± 0.85	COC(=O)[C@@H](Cc1ccc(O)c(O)c1)OC(=O)/C=C/c1ccc(O)c(O)c1 [Methyl rosmarinate (5), Methyl rosmarinate]	18.68 ± 0.63	37.59 ± 0.60	76.21 ± 1.04											
32.7 ± 0.08	1.29 ± 0.01		12.3 ± 1.84	37.9 ± 1.25	53.67 ± 0.41	CCCOC(=O)[C@@H](Cc1ccc(O)c(O)c1)OC(=O)/C=C/c1ccc(O)c(O)c1 [Propyl rosmarinate (S2), Propyl rosmarinate]	17.68 ± 0.83	37.15 ± 0.29	77.82 ± 0.46											
30.02 ± 0.1	1.54 ± 0.04		13.1 ± 0.47	28.6 ± 0.47	51.4 ± 0.94	CCCCOC(=O)[C@@H](Cc1ccc(O)c(O)c1)OC(=O)/C=C/c1ccc(O)c(O)c1 [n-Butyl rosmarinate (7), n-Butyl rosmarinate]	19.98 ± 0.29	40.73 ± 1.21	84.85 ± 0.81											
30.54 ± 0.13	1.02 ± 0.07		27.4 ± 2.66	43.2 ± 0.62	60.5 ± 2.05	CCOC(=O)[C@@H](Cc1ccc(O)c(O)c1)OC(=O)/C=C/c1ccc(O)c(O)c1 [Ethyl rosmarinate (S1), Ethyl rosmarinate]	22.02 ± 0.35	38.38 ± 0.53	83.09 ± 0.21											
